The source of these data is US20190071416A1, “COMPOUNDS FOR TREATMENT OF CANCER AND EPIGENETICS” (Agency For Science, Technology and Research, priority 2015, published 2019).

By pIC50 is commonly meant the negative decadic logarithm of the IC50, by convention in mol/L.

pIC50: −log10 of the molar value.

The assay addresses T1, SMYD3 (Homo sapiens, UniProt Q9H7B4).
T1 sequence (Q9H7B4 1-428): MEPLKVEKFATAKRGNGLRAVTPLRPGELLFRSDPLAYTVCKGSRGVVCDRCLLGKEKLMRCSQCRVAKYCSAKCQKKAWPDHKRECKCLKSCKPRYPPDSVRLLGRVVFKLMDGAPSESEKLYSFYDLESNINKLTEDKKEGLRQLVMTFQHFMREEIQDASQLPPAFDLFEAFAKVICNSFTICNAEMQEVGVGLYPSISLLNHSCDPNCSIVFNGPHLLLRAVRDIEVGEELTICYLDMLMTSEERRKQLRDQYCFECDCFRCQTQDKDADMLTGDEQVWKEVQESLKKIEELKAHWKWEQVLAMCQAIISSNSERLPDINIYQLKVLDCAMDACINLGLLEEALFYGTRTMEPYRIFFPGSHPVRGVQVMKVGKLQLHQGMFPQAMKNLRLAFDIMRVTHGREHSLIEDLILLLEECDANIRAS
Kind of assay: SMYD3 biochemical assay (MTase-Glo, MAP3K2 peptide substrate). The note with it: Table 3; MTase assay, MAP3K2 peptide substrate; read-out: IC50. The method, boiled down:
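Luminescent readout of SAH production (coupled SAH→ATP conversion, MTase-Glo) after SMYD3 reacted 30 min at room temperature with 1.0 µM SAM and 10 µM MAP3K2 peptide, both final. Non-linear regression gave IC50 values.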
Regarding `CCCOC(=O)N1CCN(C(=O)c2ccc3c(Cl)c4c(nc3c2)CC(c2ccc(F)cn2)CC4)CC1` (centres unmarked) [A094, Propyl 4-(9-chloro-6-(5-fluoropyridin-2-yl)-5,6,7,8-tetrahydroacridine-3-carbonyl)piperazine-1-carboxylate], the negative logarithm of the IC50 (pIC50) was 6.85.

As to `CCCOC(=O)N1CCN(C(=O)c2ccc3c(Cl)c4c(nc3c2)CC(c2ccc(F)cn2)CC4)[C@@H](C)C1` (stereo partly drawn) [A095, Propyl (3S)-4-(9-chloro-6-(5-fluoropyridin-2-yl)-5,6,7,8-tetrahydroacridine-3-carbonyl)-3-methylpiperazine-1-carboxylate], the negative-log IC50 (pIC50) was 6.96.

As for `CCCOC(=O)N1CCN(C(=O)c2ccc3c(Cl)c4c(nc3c2)CC(c2ncccc2C)CC4)CC1` (centres unmarked) [A096, Propyl 4-(9-chloro-6-(3-methylpyridin-2-yl)-5,6,7,8-tetrahydroacridine-3-carbonyl)piperazine-1-carboxylate], the pIC50 is 5.92. With `CCCOC(=O)N1CCN(C(=O)c2ccc3c(Cl)c4c(nc3c2)CC(c2ccc(F)cn2)CC4)C[C@@H]1C` (stereo partly drawn) [A097, Propyl (2S)-4-(9-chloro-6-(5-fluoropyridin-2-yl)-5,6,7,8-tetrahydroacridine-3-carbonyl)-2-methylpiperazine-1-carboxylate], the pIC50 was 6.77. As for `CCCOC(=O)N1CCN(C(=O)c2ccc3c(Cl)c4c(nc3c2)CC(c2ccc(F)cn2)CC4)C[C@H]1C` (stereo partly drawn) [A098, Propyl (2R)-4-(9-chloro-6-(5-fluoropyridin-2-yl)-5,6,7,8-tetrahydroacridine-3-carbonyl)-2-methylpiperazine-1-carboxylate], the pIC50 was 6.82. On to `CCCOC(=O)N1CCN(C(=O)c2ccc3c(Cl)c4c(nc3c2)CC(c2ncccc2F)CC4)CC1` (centres unmarked) [A099, Propyl 4-(9-chloro-6-(3-fluoropyridin-2-yl)-5,6,7,8-tetrahydroacridine-3-carbonyl)piperazine-1-carboxylate], for which the negative-log IC50 (pIC50) is 6.23. `CCCOC(=O)N1CCN(C(=O)c2ccc3c(Cl)c4c(nc3c2)CC(c2ncccc2F)CC4)[C@@H](C)C1` (stereo partly drawn) [A100, Propyl (3S)-4-(9-chloro-6-(3-fluoropyridin-2-yl)-5,6,7,8-tetrahydroacridine-3-carbonyl)-3-methylpiperazine-1-carboxylate]: the negative logarithm of the IC50 (pIC50) is 6.24. On to `CCCOC(=O)N1CCN(C(=O)c2ccc3c(Cl)c4c(nc3c2)CC(c2ncccc2C)CC4)[C@@H](C)C1` (stereo partly drawn) [A101, Propyl (3S)-4-(9-chloro-6-(3-methylpyridin-2-yl)-5,6,7,8-tetrahydroacridine-3-carbonyl)-3-methylpiperazine-1-carboxylate], for which the negative-log IC50 (pIC50) was 5.77. On to `CCCOC(=O)N1CCN(C(=O)c2ccc3c(Cl)c4c(nc3c2)CC(CN)CC4)[C@H](C)C1` (stereo partly drawn) [A102, Propyl (3R)-4-(6-(aminomethyl)-9-chloro-5,6,7,8-tetrahydroacridine-3-carbonyl)-3-methylpiperazine-1-carboxylate], for which the negative logarithm of the IC50 (pIC50) is 6.64. Consider `CCCOC(=O)N1CCN(C(=O)c2ccc3c(Cl)c4c(nc3c2)CC(Cc2ccccn2)CC4)CC1` (centres unmarked) [A103, Propyl 4-(9-chloro-6-(pyridin-2-ylmethyl)-5,6,7,8-tetrahydroacridine-3-carbonyl)piperazine-1-carboxylate], for which the pIC50 is 6.41. As for `CCCOC(=O)N1CCN(C(=O)c2ccc3c(Cl)c4c(nc3c2)CC(c2ccnc(C)c2)CC4)CC1` (centres unmarked) [A104, Propyl 4-(9-chloro-6-(2-methylpyridin-4-yl)-5,6,7,8-tetrahydroacridine-3-carbonyl)piperazine-1-carboxylate], the negative-log IC50 (pIC50) is 7.08. As to `CCCOC(=O)N1CCN(C(=O)c2ccc3c(Cl)c4c(nc3c2)CC(CCN(C)C)CC4)CC1` (centres unmarked) [A105, Propyl 4-(9-chloro-6-(2-(dimethylamino)ethyl)-5,6,7,8-tetrahydroacridine-3-carbonyl)piperazine-1-carboxylate], the pIC50 is 7.05. As to `CCCOC(=O)N1CCN(C(=O)c2ccc3c(Cl)c4c(nc3c2)CC(c2ccc(F)cn2)CC4)[C@H](C)C1` (stereo partly drawn) [A106, Propyl (3R)-4-(9-chloro-6-(5-fluoropyridin-2-yl)-5,6,7,8-tetrahydroacridine-3-carbonyl)-3-methylpiperazine-1-carboxylate], the negative logarithm of the IC50 (pIC50) was 7.39.

`CCCOC(=O)N1CCN(C(=O)c2ccc3c(Cl)c4c(nc3c2)CC(c2ncccc2C)CC4)C[C@@H]1C` (stereo partly drawn) [A107, Propyl (2S)-4-(9-chloro-6-(3-methylpyridin-2-yl)-5,6,7,8-tetrahydroacridine-3-carbonyl)-2-methylpiperazine-1-carboxylate]: the pIC50 is 6.42.

Take `CCCOC(=O)N1CCN(C(=O)c2ccc3c(Cl)c4c(nc3c2)CC(c2ncccc2C)CC4)C[C@H]1C` (stereo partly drawn) [A108, Propyl (2R)-4-(9-chloro-6-(3-methylpyridin-2-yl)-5,6,7,8-tetrahydroacridine-3-carbonyl)-2-methylpiperazine-1-carboxylate]: the pIC50 is 6.32. `CCCOC(=O)N1CCN(C(=O)c2ccc3c(Cl)c4c(nc3c2)CC(c2ncccc2C)CC4)[C@H](C)C1` (stereo partly drawn) [A109, Propyl (3R)-4-(9-chloro-6-(3-methylpyridin-2-yl)-5,6,7,8-tetrahydroacridine-3-carbonyl)-3-methylpiperazine-1-carboxylate]: the pIC50 is 6.14. As to `CCCOC(=O)N1CCN(C(=O)c2ccc3c(Cl)c4c(nc3c2)CCCC4)CC1COC` (centres unmarked) [A110, Propyl 4-(9-chloro-5,6,7,8-tetrahydroacridine-3-carbonyl)-2-(methoxymethyl)piperazine-1-carboxylate], the negative logarithm of the IC50 (pIC50) was 6.08. To `CCCOC(=O)N1CCN(C(=O)c2ccc3c(Cl)c4c(nc3c2)CC(CCN)CC4)[C@H](C)C1` (stereo partly drawn) [A111, Propyl (3R)-4-(6-(2-aminoethyl)-9-chloro-5,6,7,8-tetrahydroacridine-3-carbonyl)-3-methylpiperazine-1-carboxylate] belongs 7.33. As to `CCCOC(=O)N1CCN(C(=O)c2ccc3c(Cl)c4c(nc3c2)CC(c2cnccn2)CC4)CC1` (centres unmarked) [A112, Propyl 4-(9-chloro-6-(pyrazin-2-yl)-5,6,7,8-tetrahydroacridine-3-carbonyl)piperazine-1-carboxylate], the pIC50 was 6.85.

As to `CCCOC(=O)N1CCN(C(=O)c2ccc3c(Cl)c4c(nc3c2)CC(c2ncccc2F)CC4)[C@H](C)C1` (stereo partly drawn) [A113, Propyl (3R)-4-(9-chloro-6-(3-fluoropyridin-2-yl)-5,6,7,8-tetrahydroacridine-3-carbonyl)-3-methylpiperazine-1-carboxylate], the pIC50 is 6.47.

In the case of `CCCOC(=O)N1CCN(C(=O)c2ccc3c(Cl)c4c(nc3c2)CC(c2ccnc(C)c2)CC4)[C@H](C)C1` (stereo partly drawn) [A114, Propyl (3R)-4-(9-chloro-6-(2-methylpyridin-4-yl)-5,6,7,8-tetrahydroacridine-3-carbonyl)-3-methylpiperazine-. 1-carboxylate], the negative-log IC50 (pIC50) is 6.96. Take `CCCOC(=O)N1CCN(C(=O)c2ccc3c(Cl)c4c(nc3c2)CC(c2ncccc2F)CC4)C[C@H]1C` (stereo partly drawn) [A115, Propyl (2R)-4-(9-chloro-6-(3-fluoropyridin-2-yl)-5,6,7,8-tetrahydroacridine-3-carbonyl)-2-methylpiperazine-1-carboxylate]: the pIC50 is 6.57.

Turning to `CCCOC(=O)N1CCN(C(=O)c2ccc3c(Cl)c4c(nc3c2)CCCC4)C(C#N)C1` (centres unmarked) [A116, Propyl 4-(9-chloro-5,6,7,8-tetrahydroacridine-3-carbonyl)-3-cyanopiperazine-1-carboxylate], the negative logarithm of the IC50 (pIC50) is 6.68.
